From patent US20180362893A1, “COMPOSITIONS COMPRISING AN ULTRAVIOLET INDICATOR” (Chemia Corporation, priority 2015, published 2018)

Assay: Solubility of Pylaklor White Grains S-5 UV indicator in fragrances
Details: for Color change of the solution: solution of the named fragrance with 5 wt. % Pylaklor White Grains S-5
[1] = Pylaklor White Grains S-5 at 5 wt. % in the named aldehyde fragrance (Table 6)
[2] = Pylaklor White Grains S-5 at 5 wt. % in the named fragrance (Table 5)

Experimental: The solubility of Pylaklor White Grains S-5 UV indicator was evaluated in difference chemical classes of fragrances at a UV indicator concentration of 5 wt. %. The resulting admixtures were evaluated for UV activity by exposure to UV light (400 nm ±5 nm) using a Rayovac VBUV-B light source and visual observation.
The solubility of Pylaklor White Grains S-5 UV indicator was evaluated in three different aldehyde fragrances at a UV indicator concentration of 5 wt. %. The resulting admixtures were evaluated for UV activity by exposure to UV light (400 nm±5 nm) using a Rayovac VBUV-B light source and visual observation.

Row | SMILES | Soluble [1] | Soluble [2] | Color change of the solution
1 | CCCCCCCCCC=O [Aldehyde C-10 (decanal), decanal] | Yes |  | 
2 | O=C/C=C/c1ccccc1 [Cinnamic aldehyde] | Yes |  | 
3 | CC/C=C\CCO [Cis-3-hexanol] |  | Yes | changed from a straw color to a yellow color
4 | CCOC(C)=O [Ethyl acetate] |  | Yes | 
5 | CCCCCCC1CCC(=O)O1 (stereo not shown) [Gamma-decalactone] |  | Yes | 
6 | CCCCCCC(C=O)=Cc1ccccc1 [Hexyl cinnamic aldehyde] |  | Yes | changed color
7 | C=CC(C)(O)CCC=C(C)C (stereo not shown) [Linalool] |  | Yes | 
8 | CCCCCC1C(=O)CCC1CC(=O)OC (stereo not shown) [Methyl dihydrojasmonate] |  | Yes | 
